Results published in PubChem BioAssay AID2060892 (Molecular Pharmacology Branch, DTP, NCI, 2025).

System: HOP-62 complex spheroids with HUVEC/MSC, viability
Test: Anticancer human tumor HOP-62 cell line growth inhibition [RAS];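 further: spheroids exposed to agents for seven days before readout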;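 on viability, T/C: 100% = DMSO vehicle control viability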
Conditions: for viability, T/C: stronger effect = lower value
How it was run: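 Tumour cells grown as complex spheroids with HUVEC endothelial cells and mesenchymal stem cells, treated with RAS pathway inhibitor combinations. Each agent spans half-log steps from near clinical Cmax, or 10 microM where Cmax is unknown.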

For `CC1(O)CCCC1n1c(=O)c(C(F)F)cc2cnc(NC3CCN(S(C)(=O)=O)CC3)nc21` (stereo not given), the viability, T/C (compound 0.0316 µM) was 100% [middle of 4 runs] and the viability, T/C (compound 10 µM) was 4.01% [middle of 4 runs].
In the case of `Cc1nc(N2CCC3(CC2)COC(C)C3N)c(CO)nc1Sc1ccnc(N)c1Cl` (stereo not given) + C=CC(=O)N1CCN(c2nc(OCC3CCCN3C)nc3c(F)c(-c4nc(N)cc(C)c4C(F)(F)F)c(Cl)cc23)C(C)C1, the IC50 (curve of first compound, second compound 0.00316 µM) is reported as 0.138 µM, the IC50 (curve of first compound, second compound 0.01 µM) is reported as 0.072 µM and the IC50 (curve of first compound, second compound 0.0316 µM) is reported as 0.0439 µM. It also gave an IC50 (curve of first compound, second compound 0.1 µM) of 0.052 µM, an IC50 (curve of first compound, second compound 0.316 µM) of 0.0567 µM and an IC50 (curve of first compound, second compound 1 µM) of less than 0.0316 µM. The viability, T/C (second compound 0.00316 µM, first compound 0.0316 µM) was 68.6%, the viability, T/C (second compound 0.00316 µM, first compound 0.1 µM) was 52.6% and the viability, T/C (second compound 0.00316 µM, first compound 0.316 µM) was 40.3%. The viability, T/C (second compound 0.00316 µM, first compound 1 µM) was 28.7%, the viability, T/C (second compound 0.00316 µM, first compound 3.16 µM) was 14.1% and the viability, T/C (second compound 0.00316 µM, first compound 10 µM) was 13.8%. The viability, T/C (second compound 0.01 µM, first compound 0.0316 µM) was 58.6%, the viability, T/C (second compound 0.01 µM, first compound 0.1 µM) was 46.1% and the viability, T/C (second compound 0.01 µM, first compound 0.316 µM) was 32.8%. It also gave a viability, T/C (second compound 0.01 µM, first compound 1 µM) of 21.3%, a viability, T/C (second compound 0.01 µM, first compound 3.16 µM) of 10.6% and a viability, T/C (second compound 0.01 µM, first compound 10 µM) of 8.87%. It also gave a viability, T/C (second compound 0.0316 µM, first compound 0.0316 µM) of 52%, a viability, T/C (second compound 0.0316 µM, first compound 0.1 µM) of 44.8% and a viability, T/C (second compound 0.0316 µM, first compound 0.316 µM) of 30.5%. The viability, T/C (second compound 0.0316 µM, first compound 1 µM) was 17.4%, the viability, T/C (second compound 0.0316 µM, first compound 3.16 µM) was 13.7% and the viability, T/C (second compound 0.0316 µM, first compound 10 µM) was 9.06%. The viability, T/C (second compound 0.1 µM, first compound 0.0316 µM) was 56.5%, the viability, T/C (second compound 0.1 µM, first compound 0.1 µM) was 41.5% and the viability, T/C (second compound 0.1 µM, first compound 0.316 µM) was 29.1%. It also gave a viability, T/C (second compound 0.1 µM, first compound 1 µM) of 19.5%, a viability, T/C (second compound 0.1 µM, first compound 3.16 µM) of 10.4% and a viability, T/C (second compound 0.1 µM, first compound 10 µM) of 9.33%. For the same compound, the viability, T/C (second compound 0.316 µM, first compound 0.0316 µM) was 54.8%, the viability, T/C (second compound 0.316 µM, first compound 0.1 µM) was 44.8% and the viability, T/C (second compound 0.316 µM, first compound 0.316 µM) was 31.1%. The viability, T/C (second compound 0.316 µM, first compound 1 µM) was 15.5%, the viability, T/C (second compound 0.316 µM, first compound 3.16 µM) was 12.1% and the viability, T/C (second compound 0.316 µM, first compound 10 µM) was 10.7%. It also gave a viability, T/C (second compound 1 µM, first compound 0.0316 µM) of 49.6%, a viability, T/C (second compound 1 µM, first compound 0.1 µM) of 37.8% and a viability, T/C (second compound 1 µM, first compound 0.316 µM) of 26.1%. The viability, T/C (second compound 1 µM, first compound 1 µM) was 15.1%, the viability, T/C (second compound 1 µM, first compound 3.16 µM) was 11.7% and the viability, T/C (second compound 1 µM, first compound 10 µM) was 8.55%.
For `CCN1CCN(Cc2ccc(Nc3ncc(F)c(-c4cc(F)c5nc(C)n(C(C)C)c5c4)n3)nc2)CC1`, the viability, T/C (compound 0.00316 µM) was 103% [middle of 4 runs], the viability, T/C (compound 0.01 µM) was 104% [middle of 4 runs] and the viability, T/C (compound 0.0316 µM) was 103% [middle of 4 runs]. The IC50 (curve of compound) was greater than 1 µM.
For `C=CC(=O)Nc1cc(Nc2nccc(-c3cn(C)c4ccccc34)n2)c(OC)cc1N(C)CCN(C)C`, the viability, T/C (compound 0.00316 µM) was 103% [middle of 4 runs], the viability, T/C (compound 0.01 µM) was 101% [middle of 4 runs] and the viability, T/C (compound 0.0316 µM) was 108% [middle of 4 runs]. For the same compound, the viability, T/C (compound 0.1 µM) was 110% [middle of 4 runs], the viability, T/C (compound 0.316 µM) was 110% [middle of 4 runs] and the viability, T/C (compound 1 µM) was 103% [middle of 4 runs]. The IC50 (curve of compound) was greater than 1 µM.
